Assay results: patent publication US12643882B2, “Inhibitors of human respiratory syncytial virus and metapneumovirus” (priority 2022, dated 2026)
Where two headings read alike, the source gives them in different places.

Assays:
RSV-A2-GFP virus = experiment: microbe, parasite or virus in culture; assay type: cell-based, Human Respiratory Syncytial Virus
Method: To set up the assay, ARF vials were thawed in a 37° C. water bath and a control compound was resuspended in assay media DMEM (Dulbecco's Modified Eagle Medium) containing 2% FBS, 100 U/ml Penicillin-Streptomycin.
GFP sequence was derived from pJTI™ R4 Dest CMV N-EmGFP pA Vector (Invitrogen) and was cloned into the intergenic sequence between wild-type RSV-A2 P and M genes using standard recombineering techniques. Recombinant RSV-A2-GFP was propagated in Hep2 cells (human cells contain HeLa marker chromosomes and were derived via HeLa contamination, ATCC CCL-23) with a Multiplicity of Infection (MOI) of 0.1. Virus was harvested 3 days after infection by collecting all culture material and then freeze-thawing the mixture for 5 min. Working virus stocks were generated by thawing frozen viral cultures in 37° C. water bath, which were centrifuged at 218 g for 15 min at 4° C. 1/10 of 10×SPG (Biological Industries 06-3061-01-5A) were added and then mixed. The supernatant was aliquoted, frozen in liquid nitrogen, and then transferred to a −80° C. freezer for storage. Virus titer was determined by automated plaque assay in HEp-2 cells following methods described previously (Wen Z. et al.; 2019).
Calu-1 cells were purchased from ATCC (Cat #HTB-54) and were expanded in growth media (DMEM containing 10% FBS, 100 U/ml Penicillin-Streptomycin). To make ARF, cell culture media was removed and discarded and the cell layer was briefly rinsed with PBS to remove serum. 2.5 mL of TrypLE Express solution were added and cells incubated until dislodged, to which growth media was added and the cells were resuspended by gentle pipetting. Cells were counted for concentration and viability as determined by ViCell. Cells were centrifuged at RT, 300 g for 5 minutes to pellet cells. The supernatant was gently aspirated and the pellet was flicked to loosen cells. Cells were resuspended in an appropriate volume of freezing medium (DMEM containing 10% DMSO, 10% FBS, 100 U/ml Penicillin-Streptomycin) to achieve a concentration of 5×10^6 cells/mL. 1 mL aliquots of the cell suspension were transferred to freezing vials. The vials were put into an upright container in a −80° C. freezer overnight before transferring vials to liquid nitrogen for storage.
Assay ready freezedown (ARF, generation described separately) Calu-1 cells (ATCC HTB-54) were used. Compound plates were prepared by dispensing compounds dissolved in DMSO into the wells of a 384 well Corning® 3985 plate with an ECHO acoustic dispenser and compounds were tested in 10-point serial 3-fold dilution. […] To set up the assay, ARF vial(s) were thawed in a 37° C. water bath and were then resuspended into assay media (DMEM containing 2% FBS, 100 U/ml Penicillin-Streptomycin). Cells were counted using default parameters on ViCell and diluted to 20,000 cells/mL in assay media. RSV-A2-GFP virus was added to cells at 24,000 pfu/ml (MOI=1.2) and mixed by gentle inversion. 10 μL/well of 100% DMSO was dispensed as CellTiter-Glo (CTG) assay Max_E controls wells. The cells were dispensed at 50 μL/well using Bravo with 50 μL filtered tips into compound plates. Plates were covered with MicroClime lids, loaded with 7.5 mL of assay media to minimize evaporation, and were incubated at 37° C. and 5% CO2 for 96 hrs. Following incubation, distinct, GFP-expressing cells were counted using an Acumen imaging system with appropriate settings. A same-well CTG assay was performed by adding 10 μL/well reconstituted CellTiter-Glo reagent (Promega G7573) and plates were read on PerkinElmer Envision according to manufacturer's instructions. Raw data were loaded and analyzed in ActivityBase. Antiviral IC50 and cytotoxicity CC50 values were determined using a 4 parameter logistic fit based on the Levenberg-Marquardt algorithm. Model: 205-4 Parameter Logistic.

hMPV-GFP virus = experiment: microbe, parasite or virus in culture; assay type: cell-based, human metapneumovirus
Method: GFP expressing rgHMPV #3 p3 was generated in Dr. Buchholz's lab (Biacchesi S. et al., J Virol. 2007 June; 81(11): 6057-6067) and propagated in VERO cells (ATCC Cat #CCL-81) with a Multiplicity of Infection (MOI) of 0.1. Virus was harvested 4 days after infection by collecting cultured material and was freeze-thaw cycled in liquid nitrogen twice. Working virus stocks were generated from thawing frozen samples in 37° C. water bath, which were centrifuged at 218 g for 15 min at 4° C. 1/10 of 10×SPG (Biological Industries 06-3061-01-5A) were added and then mixed. The supernatant was aliquoted, frozen in liquid nitrogen, and then transferred to a −80° C. freezer for storage. Virus titer was determined by performing titration test in 96-well plates and calculate approximate virus titer using GFP event/well data.
Compound plates were prepared by dispensing compounds dissolved in DMSO into wells of a 384 well Corning 3985 polystyrene flat clear bottom optical imaging microplate (202.5 nL/well) using an ECHO acoustic dispenser. Each compound was tested in 10-point serial 3-fold dilution (typical final concentrations: 40,300 nM-2 nM). […] Continuous culture of VERO cells was maintained in complete culture media (OptiMEM supplemented with 2 mM GlutaMAX™ and 100 U/ml Penicillin-Streptomycin). To set up the assay, VERO cells were trypsinized with 0.25% Trypsin-EDTA until cells were dislodged, then cells were re-suspended with 1 mL FBS. Cells were spun down at 300 g for 5 minutes and cells were washed twice with culture media and counted using default parameters on ViCell. Cells were then diluted to 100,000 cells/mL (5,000 cells/50 μL) in complete culture media+TrypLE Select (80 μL/mL). hMPV-GFP virus was added to cells at 125,000 pfu/mL (MOI=1.25) and were mixed by gentle inversion. 10 μL/well of 100% DMSO was dispensed to CellTiter-Glo (CTG) assay Max_E controls wells. Cells were dispensed at 50 μL/well using Bravo and 50 μL filtered tips into compound plates. Plates were covered with MicroClime lids and loaded with 7.5 mL of assay media to minimize evaporation. Plates were lightly shaken for 10 minutes at room temperature and then incubated at 37° C. and 5% CO2 for 48 hrs. Following incubation, distinct GFP-expressing cells were counted using an Acumen imaging system with appropriate settings. A same-well CTG assay was performed by adding 10 μL/well reconstituted CellTiter-Glo reagent (Promega G7573) and plates were read on PerkinElmer Envision according to manufacturer's instructions. Raw data were loaded and analyzed in ActivityBase. Antiviral IC50 and cytotoxicity CC50 values were determined using a 4 parameter logistic fit based on the Levenberg-Marquardt algorithm. Model: 205-4 Parameter Logistic. • References: Wen Z, Citron M, Bett A J, Espeseth A S, Vora K A, Zhang L, DiStefano D J. Development and application of a higher throughput RSV plaque assay by immunofluorescent imaging. J Virol Methods. 2019 January; 263:88-95. doi: 10.1016/j.jviromet.2018.10.022. Epub 2018 Oct. 28. PMD: 30381239. • Biacchesi S, Murphy B R, Collins P L, Buchholz U J. Frequent frameshift and point mutations in the SH gene of human metapneumovirus passaged in vitro. J Virol. 2007 June; 81(11):6057-67. doi: 10.1128/JVL.00128-07. Epub 2007 Mar. 21. PMID: 17376897; PMCID: MC 1900297. Assay Data

[1] = human respiratory syncytial virus, Calu-1, 96 h, read-out: RSV EC50, Calu-1 cells infected with RSV-A2-GFP, 96 hrs, GFP-expressing cells counted
[2] = human metapneumovirus, Vero, 48 h, read-out: hMPV EC50, VERO cells infected with hMPV-GFP, 48 hrs, GFP-expressing cells counted
[3] = Calu-1 cells infected with RSV-A2-GFP, 96 hrs, GFP-expressing cells counted, read-out: RSV EC50
[4] = VERO cells infected with hMPV-GFP, 48 hrs, GFP-expressing cells counted, read-out: hMPV EC50

Row | Structure (SMILES) | EC50 (RSV-A2-GFP virus; [1]) | EC50 (hMPV-GFP virus; [2]) | EC50 (RSV-A2-GFP virus; [3]) | EC50 (hMPV-GFP virus; [4])
1 | Cc1nc(-c2ncccn2)sc1C(=O)N1C[C@@H]2[C@H](C1)[C@H]2Oc1cc(C(C)(C)N)cc(Cc2ccc(F)cc2)n1 [Example 126, ((1R,5S,6s)-6-((4-(2-aminopropan-2-yl)-6-(4-fluorobenzyl)pyridin-2-yl)oxy)-3-azabicyclo[3.1.0]hexan-3-yl)(4-methyl-2-(pyrimidin-2-yl)thiazol-5-yl)methanone] | < 10 nM | > 100 nM |  | 
2 | Cc1cccc(-c2cc(C(=O)N3C[C@@H]4[C@H](C3)[C@H]4Oc3cc(C(C)(C)N)cc(-c4ccc(F)cc4)n3)n(C)n2)n1 [Example 51, ((1R,5S,6s)-6-((4-(2-aminopropan-2-yl)-6-(4-fluorophenyl)pyridin-2-yl)oxy)-3-azabicyclo[3.1.0]hexan-3-yl)(1-methyl-3-(6-methylpyridin-2-yl)-1H-pyrazol-5-yl)methanone] |  |  | < 10 nM | > 100 nM
3 | Cc1nc(-c2ncccn2)sc1C(=O)N1C[C@@H]2[C@H](C1)[C@H]2Oc1cc(C(C)(C)N)cc(-c2ccc3c(c2)CCO3)n1 [Example 34, ((1R,5S,6s)-6-((4-(2-aminopropan-2-yl)-6-(2,3-dihydrobenzofuran-5-yl)pyridin-2-yl)oxy)-3-azabicyclo[3.1.0]hexan-3-yl)(4-methyl-2-(pyrimidin-2-yl)thiazol-5-yl)methanone] |  |  | < 10 nM | > 100 nM
4 | Cc1nc(-c2ncccn2)sc1C(=O)N1C[C@@H]2[C@H](C1)[C@H]2Oc1cc(C(C)(C)N)cc(-c2ccc(C(F)(F)F)nc2)n1 [Example 28, ((1R,5S,6s)-6-((4-(2-aminopropan-2-yl)-6′-(trifluoromethyl)-[2,3′-bipyridin]-6-yl)oxy)-3-azabicyclo[3.1.0]hexan-3-yl)(4-methyl-2-(pyrimidin-2-yl)thiazol-5-yl)methanone] |  |  | < 10 nM | 10 to 100 nM
5 | Cc1nn(-c2ncccn2)cc1C(=O)N1C[C@@H]2[C@H](C1)[C@H]2Oc1cc(C(C)(C)N)cc(N2CCC(C)(C)CC2)n1 [Example 100, ((1R,5S,6s)-6-((4-(2-aminopropan-2-yl)-6-(4,4-dimethylpiperidin-1-yl)pyridin-2-yl)oxy)-3-azabicyclo[3.1.0]hexan-3-yl)(3-methyl-1-(pyrimidin-2-yl)-1H-pyrazol-4-yl)methanone] |  |  | < 10 nM | > 100 nM
6 | Cc1nn(-c2ncccn2)cc1C(=O)N1C[C@@H]2[C@H](C1)[C@H]2Oc1cc(C2(C)CCCN2)cc(-c2ccc(F)cc2)n1 (single isomer, unassigned; enantiomer 1) [Example 112] | < 10 nM | > 100 nM |  | 
7 | Cc1nc(-c2ncccn2)sc1C(=O)N1C[C@@H]2C(Oc3cc(C(C)(C)N)cc(C4=CCC(C)CC4)n3)[C@@H]2C1 (mixture of isomers) [Example 46, rac-((1R,5S,6s)-6-((4-(2-aminopropan-2-yl)-6-(4-methylcyclohex-1-en-1-yl)pyridin-2-yl)oxy)-3-azabicyclo[3.1.0]hexan-3-yl)(4-methyl-2-(pyrimidin-2-yl)thiazol-5-yl)methanone] |  |  | < 10 nM | > 100 nM
8 | Cc1nc(-c2ncccn2)[nH]c1C(=O)N1C[C@@H]2[C@H](C1)[C@H]2Oc1cc(C(C)(C)N)cc(-c2ccc(F)cc2)n1 [Example 75, ((1R,5S,6s)-6-((4-(2-aminopropan-2-yl)-6-(4-fluorophenyl)pyridin-2-yl)oxy)-3-azabicyclo[3.1.0]hexan-3-yl)(4-methyl-2-(pyrimidin-2-yl)-1H-imidazol-5-yl)methanone] |  |  | 10 to 100 nM | > 100 nM
9 | Cc1nn(-c2ncccn2)nc1C(=O)N1C[C@@H]2[C@H](C1)[C@H]2Oc1cc(C(C)(C)N)cc(-c2ccc(F)cc2)n1 [Example 76, ((1R,5S,6s)-6-((4-(2-aminopropan-2-yl)-6-(4-fluorophenyl)pyridin-2-yl)oxy)-3-azabicyclo[3.1.0]hexan-3-yl)(5-methyl-2-(pyrimidin-2-yl)-2H-1,2,3-triazol-4-yl)methanone] |  |  | 10 to 100 nM | > 100 nM
10 | Cc1nc(-c2ncccn2)sc1C(=O)N1C[C@@H]2[C@H](C1)[C@H]2Oc1cc(C(C)(C)N)cc(-c2cc3ccccc3[nH]2)n1 [Example 43, ((1R,5S,6s)-6-((4-(2-aminopropan-2-yl)-6-(1H-indol-2-yl)pyridin-2-yl)oxy)-3-azabicyclo[3.1.0]hexan-3-yl)(4-methyl-2-(pyrimidin-2-yl)thiazol-5-yl)methanone] |  |  | < 10 nM | > 100 nM
11 | Cn1nc(-c2ncccn2)cc1C(=O)N1C[C@@H]2[C@H](C1)[C@H]2Oc1cc(C(C)(C)N)cc(-c2ccc(F)c(F)c2)n1 [Example 55, ((1R,5S,6s)-6-((4-(2-aminopropan-2-yl)-6-(3,4-difluorophenyl)pyridin-2-yl)oxy)-3-azabicyclo[3.1.0]hexan-3-yl)(1-methyl-3-(pyrimidin-2-yl)-1H-pyrazol-5-yl)methanone] | < 10 nM | > 100 nM |  | 
